Assay results taken from patent publication US20250122191A1, “COMPOUNDS AS BCL-2 INHIBITORS” (Fochon Biosciences, Ltd, priority 2021, published 2025).

Experiments:
RS4;11-BCL-2 G101V cells = test: Cell proliferation assay (MTS), RS4;11-BCL-2 G101V engineered cells; format: cell-based; conditions: Homo sapiens, 120 h, read-out: RS4, 11 BCL2-G101V IC50
Excerpt: MTS testing kit was purchased from Promega (Madison, WI, USA). The RPMI-1640, Fetal bovine serum and Penicillin-Streptomycin were purchased from BI (Biological Industries, Beit Haemek, Israel). Puromycin was purchased from Beyotime (shanghai, China). Dimethyl sulfoxide (DMSO) was purchased from Sigma (St. Louis., MO, USA). RS4;11-BCL-2 G101V (Cobioer Lot. #: CBD2021063013P4), RS4;11-BCL-2 D103E (Cobioer Lot. #: CBD2021063013P4), RS4;11-BCL-2 D103Y (Cobioer Lot. #: CBD2022012101P4) and RS4;11-BCL-2 F104L (Cobioer Lot. #: CBD2021063014P4) cells were cultured in RPMI1640 supplemented with 1 ug/mL puromycin, 100 U/mL Penicillin-Streptomycin and 10% FBS.
To investigate whether a compound is able to inhibit the activity of BCL-2 mutation in cells, a mechanism-based assay using engineered cell lines stably overexpressing BCL-2 mutation (RS4;11-BCL-2 G101V, RS4;11-BCL-2 D103E, RS4;11-BCL-2 D103Y, and RS4;11-BCL-2 F104L) was developed. In this assay, the inhibition of BCL-2 mutation was reflected by the inhibition of cell proliferation of engineered RS4;11 cells. Cells were plated into 96-well plates at optimized cell density (RS4;11-BCL-2 G101V: 5000 cells/well; RS4;11-BCL-2 D103E: 7500 cells/well; RS4;11-BCL-2 D103Y: 7500 cells/well; RS4;11-BCL-2 F104L: 5000 cells/well). Plates were incubated at 37° C., with 5% CO2 for 4 h (RS4;11-BCL-2 G101V, RS4;11-BCL-2 F104L) and 24 h (RS4;11-BCL-2 D103E, RS4;11-BCL-2 D103Y), respectively. Compounds were serially diluted and added to the plates with the final concentrations of 10000, 3333.3, 1111.1, 370.4, 123.5, 41.2, 13.7, 4.6 and 1.5 nM. Plates were incubated at 37° C., with 5% CO2 for 120 h (RS4; 11-BCL-2 G101V, RS4; 11-BCL-2 F104L) and 72 h (RS4;11-BCL-2 D103E, RS4;11-BCL-2 D103Y), respectively. 20 μl MTS was added into each well and the plates were incubated at 37° C., with 5% CO2 exactly for 2 h. The absorbance was measured by a microplate reader at 490 nm. IC50 values were calculated using GraphPad Prism 8.0 software.

Toledo cells = test: Cell proliferation assay (MTS), Toledo cells; format: cell-based; conditions: Homo sapiens, 72 h
Method: MTS testing kit was purchased from Promega (Madison, WI, USA). The RPMI-1640, Fetal bovine serum and Penicillin-Streptomycin were purchased from BI (Biological Industries, Beit Haemek, Israel). Dimethyl sulfoxide (DMSO) was purchased from Sigma (St. Louis., MO, USA). Toledo (ATCC catalog #: CRL-2631) cells were cultured in RPMI-1640 supplemented with Penicillin-Streptomycin and 10% FBS.
To investigate whether a compound is able to inhibit the activity of BCL-2 in cells, a mechanism-based assay using Toledo lines was developed. In this assay, the inhibition of BCL-2 was reflected by the inhibition of cell proliferation of Toledo cells. Cells were plated into 96-well plates at the optimized cell density of 30000 cells/well. Plates were incubated at 37° C., with 5% CO2 for 4 h. Compounds were serially diluted and added to the plates with the final concentrations of 10000, 3333.3, 1111.1, 370.4, 123.5, 41.2, 13.7, 4.6 and 1.5 nM. Plates were incubated at 37° C., with 5% CO2 for 72 h. 20 μl MTS was added into each well and the plates were incubated at 37° C., with 5% CO2 for exactly 2 h. The absorbance was measured by a microplate reader at 490 nm. IC50 was calculated using GraphPad Prism 5.0 software.

| Compound | IC50 (RS4;11-BCL-2 G101V cells) [nM] | IC50 (Toledo cells) [nM] |
| --- | --- | --- |
| CCOc1nc2[nH]cc(F)c2cc1Oc1cc(N2CCC3(CC2)CC(N2CCN(Cc4ccc(C#N)cc4)C[C@H]2c2ccccc2C(C)C)C3)ccc1C(=O)NS(=O)(=O)c1cnc(NC[C@H]2CC[C@](C)(O)CC2)c([N+](=O)[O-])c1 [Example 235, 4-(2-((R)-4-(4-cyanobenzyl)-2-(2-isopropylphenyl)piperazin-1-yl)-7-azaspiro[3.5]nonan-7-yl)-2-((6-ethoxy-3-fluoro-1H-pyrrolo [2,3-b]pyridin-5-yl)oxy)-N-((6-((((1r,4r)-4-hydroxy-4-methylcyclohexyl)methyl)amino)-5-nitropyridin-3-yl)sulfonyl)benzamide] | 1 | 1 |
| COc1nc2[nH]cc(F)c2cc1Oc1cc(N2CCC3(CC2)CC(N2CCN(Cc4cc5c(cn4)OCCO5)C[C@H]2c2ccccc2C(C)C)C3)ccc1C(=O)NS(=O)(=O)c1cnc(NC[C@H]2CC[C@](C)(O)CC2)c([N+](=O)[O-])c1 [Example 338, 4-(2-((R)-4-((2,3-dihydro-[1,4]dioxino[2,3-c]pyridin-7-yl)methyl)-2-(2-isopropylphenyl)piperazin-1-yl)-7-azaspiro[3.5]nonan-7-yl)-2-((3-fluoro-6-methoxy-1H-pyrrolo[2,3-b]pyridin-5-yl)oxy)-N-((6-((((1r,4r)-4-hydroxy-4-methylcyclohexyl)methyl)amino)-5-nitropyridin-3-yl)sulfonyl)benzamide] | 1 | 1 |
| COc1ccc(CN2CCN(C3CC4(CCN(c5ccc(C(=O)NS(=O)(=O)c6cnc(NC[C@H]7CC[C@](C)(O)CC7)c([N+](=O)[O-])c6)c(Oc6cnc7[nH]cc(F)c7c6)c5)CC4)C3)[C@H](c3ccccc3C(C)C)C2)cc1F [Example 201, 2-((3-fluoro-1H-pyrrolo[2,3-b]pyridin-5-yl)oxy)-4-(2-((R)-4-(3-fluoro-4-methoxybenzyl)-2-(2-isopropylphenyl)piperazin-1-yl)-7-azaspiro [3.5]nonan-7-yl)-N-((6-((((1r,4r)-4-hydroxy-4-methylcyclohexyl)methyl)amino)-5-nitropyridin-3-yl)sulfonyl)benzamide] | 1 | 1 |
| CCOc1nc2[nH]cc(F)c2cc1Oc1cc(N2CCC3(CC2)CC(N2CCN(Cc4ccc(OC)cn4)C[C@H]2c2ccccc2C(C)C)C3)ccc1C(=O)NS(=O)(=O)c1cnc(NC[C@H]2CC[C@](C)(O)CC2)c([N+](=O)[O-])c1 [Example 121, 2-((6-ethoxy-3-fluoro-1H-pyrrolo[2,3-b]pyridin-5-yl)oxy)-N-((6-((((1r,4r)-4-hydroxy-4-methylcyclohexyl)methyl)amino)-5-nitropyridin-3-yl)sulfonyl)-4-(2-((R)-2-(2-isopropylphenyl)-4-((5-methoxypyridin-2-yl)methyl)piperazin-1-yl)-7-azaspiro[3.5]nonan-7-yl)benzamide] |  | 1 |

Further lines, with some results ahead:

| IC50 (RS4;11-BCL-2 G101V cells) [nM] | Compound | IC50 (Toledo cells) [nM] |
| --- | --- | --- |
| 1 | CCOc1nc2[nH]cc(F)c2cc1Oc1cc(N2CCC3(CC2)CC(N2CCN(C)C[C@H]2c2ccccc2C(C)C)C3)ccc1C(=O)NS(=O)(=O)c1cnc(NC[C@H]2CC[C@](C)(O)CC2)c([N+](=O)[O-])c1 [Example 138, 2-((6-ethoxy-3-fluoro-1H-pyrrolo[2,3-b]pyridin-5-yl)oxy)-N-((6-((((1r,4r)-4-hydroxy-4-methylcyclohexyl)methyl)amino)-5-nitropyridin-3-yl)sulfonyl)-4-(2-((R)-2-(2-isopropylphenyl)-4-methylpiperazin-1-yl)-7-azaspiro[3.5]nonan-7-yl)benzamide] | 1 |
| 1 | CCOc1nc2[nH]cc(F)c2cc1Oc1cc(N2CCC3(CC2)CC(N2CCN(Cc4ccnc(OC)c4)C[C@H]2c2ccccc2C(C)C)C3)ccc1C(=O)NS(=O)(=O)c1cnc(NC[C@H]2CC[C@](C)(O)CC2)c([N+](=O)[O-])c1 [Example 241, 2-((6-ethoxy-3-fluoro-1H-pyrrolo[2,3-b]pyridin-5-yl)oxy)-N-((6-((((1r,4r)-4-hydroxy-4-methylcyclohexyl)methyl)amino)-5-nitropyridin-3-yl)sulfonyl)-4-(2-((R)-2-(2-isopropylphenyl)-4-((2-methoxypyridin-4-yl)methyl)piperazin-1-yl)-7-azaspiro[3.5]nonan-7-yl)benzamide] | 1 |
